Legend:
Assay in all cases: KINOMEscan
Type in all cases: binding
Settings in all cases: read-out: % control activity remaining
LRRK2(G2019S) = biological target: T1, LRRK2(G2019S) (Homo sapiens, UniProt Q5S007, G2019S)
T1 construct: purchased Eurofins DiscoverX KINOMEscan

IKK-alpha = biological target: T2, IKK-alpha (Homo sapiens, UniProt O15111)
T2 construct: purchased Eurofins DiscoverX KINOMEscan
T2 sequence (O15111 1-745): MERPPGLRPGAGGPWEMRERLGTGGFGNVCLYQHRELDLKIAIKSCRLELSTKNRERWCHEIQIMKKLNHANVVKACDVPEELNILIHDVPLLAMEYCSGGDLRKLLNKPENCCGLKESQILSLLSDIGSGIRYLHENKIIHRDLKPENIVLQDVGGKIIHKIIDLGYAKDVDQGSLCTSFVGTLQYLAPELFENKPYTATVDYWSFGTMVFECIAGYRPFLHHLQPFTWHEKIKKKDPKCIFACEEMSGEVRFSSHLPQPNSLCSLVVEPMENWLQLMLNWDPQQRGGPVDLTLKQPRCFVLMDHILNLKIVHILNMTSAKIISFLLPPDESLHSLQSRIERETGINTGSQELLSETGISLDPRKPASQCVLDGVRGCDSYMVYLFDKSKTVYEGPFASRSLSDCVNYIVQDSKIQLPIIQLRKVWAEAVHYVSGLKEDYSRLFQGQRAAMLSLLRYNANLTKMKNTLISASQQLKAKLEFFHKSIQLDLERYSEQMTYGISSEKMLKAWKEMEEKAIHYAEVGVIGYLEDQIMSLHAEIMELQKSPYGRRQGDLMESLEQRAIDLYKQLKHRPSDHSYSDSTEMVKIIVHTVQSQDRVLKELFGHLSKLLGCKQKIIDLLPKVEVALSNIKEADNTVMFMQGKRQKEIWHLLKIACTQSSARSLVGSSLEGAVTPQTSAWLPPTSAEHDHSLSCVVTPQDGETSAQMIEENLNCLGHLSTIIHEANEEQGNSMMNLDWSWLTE

IKK-beta = biological target: T3, IKK-beta (Homo sapiens, UniProt O14920)
T3 construct: purchased Eurofins DiscoverX KINOMEscan
T3 sequence (O14920 1-756): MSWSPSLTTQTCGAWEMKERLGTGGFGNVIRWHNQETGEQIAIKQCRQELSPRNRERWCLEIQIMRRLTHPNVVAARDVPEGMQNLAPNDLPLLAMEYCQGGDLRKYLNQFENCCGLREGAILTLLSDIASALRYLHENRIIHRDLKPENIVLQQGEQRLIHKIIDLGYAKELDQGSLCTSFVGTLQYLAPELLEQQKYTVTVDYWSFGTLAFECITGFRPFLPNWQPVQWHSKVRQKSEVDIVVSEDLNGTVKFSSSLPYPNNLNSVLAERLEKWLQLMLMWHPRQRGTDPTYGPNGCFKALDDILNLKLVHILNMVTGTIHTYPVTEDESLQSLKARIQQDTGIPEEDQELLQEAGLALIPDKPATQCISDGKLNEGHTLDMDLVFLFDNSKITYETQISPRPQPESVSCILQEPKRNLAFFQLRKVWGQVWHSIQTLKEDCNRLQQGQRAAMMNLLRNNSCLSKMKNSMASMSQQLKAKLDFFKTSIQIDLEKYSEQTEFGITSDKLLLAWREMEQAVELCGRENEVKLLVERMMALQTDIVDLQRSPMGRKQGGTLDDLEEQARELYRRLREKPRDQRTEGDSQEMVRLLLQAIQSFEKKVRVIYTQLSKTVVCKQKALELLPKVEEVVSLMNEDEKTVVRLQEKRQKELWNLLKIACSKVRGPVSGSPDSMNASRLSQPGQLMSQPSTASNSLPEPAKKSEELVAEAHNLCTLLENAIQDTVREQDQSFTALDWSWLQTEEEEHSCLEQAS

MAST1 = biological target: T4, MAST1 (Homo sapiens, UniProt Q9Y2H9)
T4 construct: purchased Eurofins DiscoverX KINOMEscan
T4 sequence (Q9Y2H9 whole entry): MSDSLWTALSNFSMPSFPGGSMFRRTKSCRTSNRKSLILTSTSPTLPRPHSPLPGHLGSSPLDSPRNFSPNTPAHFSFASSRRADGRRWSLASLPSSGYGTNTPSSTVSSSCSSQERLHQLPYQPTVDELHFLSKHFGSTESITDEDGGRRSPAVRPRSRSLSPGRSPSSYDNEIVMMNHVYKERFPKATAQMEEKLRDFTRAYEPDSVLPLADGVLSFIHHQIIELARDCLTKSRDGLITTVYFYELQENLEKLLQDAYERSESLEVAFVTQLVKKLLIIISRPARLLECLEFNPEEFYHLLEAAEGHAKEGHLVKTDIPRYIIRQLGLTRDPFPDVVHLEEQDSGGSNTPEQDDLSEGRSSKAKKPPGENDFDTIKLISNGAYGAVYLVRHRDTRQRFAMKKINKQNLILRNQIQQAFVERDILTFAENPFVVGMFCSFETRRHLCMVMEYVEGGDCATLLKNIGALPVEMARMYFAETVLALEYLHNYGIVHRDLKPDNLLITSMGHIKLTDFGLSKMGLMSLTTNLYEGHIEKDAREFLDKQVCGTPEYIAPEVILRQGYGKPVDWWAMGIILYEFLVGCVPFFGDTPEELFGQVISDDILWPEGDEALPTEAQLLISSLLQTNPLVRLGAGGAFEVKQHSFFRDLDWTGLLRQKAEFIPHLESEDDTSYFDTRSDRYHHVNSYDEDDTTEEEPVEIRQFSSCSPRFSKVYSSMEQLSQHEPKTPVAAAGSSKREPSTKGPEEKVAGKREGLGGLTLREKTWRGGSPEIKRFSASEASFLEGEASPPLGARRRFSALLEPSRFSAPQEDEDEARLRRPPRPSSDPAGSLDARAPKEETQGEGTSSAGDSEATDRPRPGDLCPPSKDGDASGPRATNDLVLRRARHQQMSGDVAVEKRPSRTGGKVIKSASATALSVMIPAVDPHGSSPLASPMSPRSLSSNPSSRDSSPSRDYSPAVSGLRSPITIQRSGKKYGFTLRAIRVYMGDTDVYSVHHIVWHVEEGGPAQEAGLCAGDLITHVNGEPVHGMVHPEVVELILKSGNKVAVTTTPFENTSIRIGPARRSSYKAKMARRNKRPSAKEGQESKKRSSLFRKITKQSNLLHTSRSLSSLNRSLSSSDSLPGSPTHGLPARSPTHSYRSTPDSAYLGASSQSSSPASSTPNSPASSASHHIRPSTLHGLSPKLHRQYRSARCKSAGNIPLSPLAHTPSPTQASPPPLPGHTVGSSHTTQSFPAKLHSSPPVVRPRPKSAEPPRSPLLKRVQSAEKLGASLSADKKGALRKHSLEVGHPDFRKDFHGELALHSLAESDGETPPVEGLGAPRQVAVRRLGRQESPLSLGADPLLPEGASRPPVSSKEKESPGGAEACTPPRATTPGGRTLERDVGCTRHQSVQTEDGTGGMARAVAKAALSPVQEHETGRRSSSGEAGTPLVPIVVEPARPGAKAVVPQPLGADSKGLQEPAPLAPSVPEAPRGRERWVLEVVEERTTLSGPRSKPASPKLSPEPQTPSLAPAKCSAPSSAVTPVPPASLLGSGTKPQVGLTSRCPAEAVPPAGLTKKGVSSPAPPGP

TLK2 = biological target: T5, TLK2 (Homo sapiens, UniProt Q86UE8)
T5 construct: purchased Eurofins DiscoverX KINOMEscan
T5 sequence (Q86UE8 whole entry): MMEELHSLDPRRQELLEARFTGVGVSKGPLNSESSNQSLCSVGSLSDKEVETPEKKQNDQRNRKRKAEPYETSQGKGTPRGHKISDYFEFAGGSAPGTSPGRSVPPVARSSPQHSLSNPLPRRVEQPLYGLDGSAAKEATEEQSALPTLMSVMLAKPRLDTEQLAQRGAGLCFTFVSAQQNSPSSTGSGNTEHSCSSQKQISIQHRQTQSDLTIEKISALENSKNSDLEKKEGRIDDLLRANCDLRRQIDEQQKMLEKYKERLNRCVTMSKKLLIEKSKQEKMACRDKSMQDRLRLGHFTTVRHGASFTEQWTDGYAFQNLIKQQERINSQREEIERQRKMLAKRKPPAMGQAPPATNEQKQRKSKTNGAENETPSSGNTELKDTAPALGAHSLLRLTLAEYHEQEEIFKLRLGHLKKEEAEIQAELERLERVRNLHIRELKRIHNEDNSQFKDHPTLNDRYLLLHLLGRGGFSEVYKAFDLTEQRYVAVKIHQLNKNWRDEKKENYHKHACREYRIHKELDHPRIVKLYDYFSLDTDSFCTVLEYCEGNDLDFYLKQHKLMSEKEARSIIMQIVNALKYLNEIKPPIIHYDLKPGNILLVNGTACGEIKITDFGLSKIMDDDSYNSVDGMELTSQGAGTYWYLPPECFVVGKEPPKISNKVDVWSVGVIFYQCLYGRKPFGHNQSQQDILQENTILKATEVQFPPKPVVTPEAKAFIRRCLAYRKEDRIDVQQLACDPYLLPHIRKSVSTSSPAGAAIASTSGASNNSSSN

FGR = biological target: T6, FGR (Homo sapiens, UniProt P09769)
T6 construct: purchased Eurofins DiscoverX KINOMEscan
T6 sequence (P09769 whole entry): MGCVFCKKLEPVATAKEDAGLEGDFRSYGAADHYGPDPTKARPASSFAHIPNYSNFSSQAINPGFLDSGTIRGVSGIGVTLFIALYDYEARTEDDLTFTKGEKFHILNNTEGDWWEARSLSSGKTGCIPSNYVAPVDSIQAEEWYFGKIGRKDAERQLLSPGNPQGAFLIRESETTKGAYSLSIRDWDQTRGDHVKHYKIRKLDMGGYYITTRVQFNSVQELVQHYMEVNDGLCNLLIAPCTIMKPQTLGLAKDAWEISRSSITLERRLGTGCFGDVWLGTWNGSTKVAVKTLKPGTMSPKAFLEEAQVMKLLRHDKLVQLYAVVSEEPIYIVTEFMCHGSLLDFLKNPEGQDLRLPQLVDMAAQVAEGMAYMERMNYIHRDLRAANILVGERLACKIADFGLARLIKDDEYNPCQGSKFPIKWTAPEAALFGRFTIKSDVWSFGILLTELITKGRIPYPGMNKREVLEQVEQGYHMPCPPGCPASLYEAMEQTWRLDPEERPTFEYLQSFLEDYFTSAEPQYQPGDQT

PRKCD = biological target: T7, PRKCD (Homo sapiens, UniProt Q05655)
T7 construct: purchased Eurofins DiscoverX KINOMEscan
T7 sequence (Q05655 whole entry): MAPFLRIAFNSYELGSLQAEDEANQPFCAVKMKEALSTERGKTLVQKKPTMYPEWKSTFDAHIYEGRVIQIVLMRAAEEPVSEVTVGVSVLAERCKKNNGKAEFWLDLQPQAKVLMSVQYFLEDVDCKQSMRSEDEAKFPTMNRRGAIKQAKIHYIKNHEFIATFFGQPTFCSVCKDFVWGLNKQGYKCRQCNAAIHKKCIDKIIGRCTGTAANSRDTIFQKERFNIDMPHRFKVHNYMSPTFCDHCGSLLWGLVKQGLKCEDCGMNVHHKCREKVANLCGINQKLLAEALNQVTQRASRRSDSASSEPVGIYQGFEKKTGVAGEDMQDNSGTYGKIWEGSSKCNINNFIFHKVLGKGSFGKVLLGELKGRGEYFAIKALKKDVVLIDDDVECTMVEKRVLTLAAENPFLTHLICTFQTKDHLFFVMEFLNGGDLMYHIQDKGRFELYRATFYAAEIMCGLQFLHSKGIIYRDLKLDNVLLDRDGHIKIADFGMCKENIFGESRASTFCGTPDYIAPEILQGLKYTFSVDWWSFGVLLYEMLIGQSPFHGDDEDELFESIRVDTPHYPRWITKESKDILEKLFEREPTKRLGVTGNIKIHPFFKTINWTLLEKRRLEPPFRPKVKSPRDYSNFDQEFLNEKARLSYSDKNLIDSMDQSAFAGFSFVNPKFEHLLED

TGFBR2 = biological target: T8, TGFBR2 (Homo sapiens, UniProt P37173)
T8 construct: purchased Eurofins DiscoverX KINOMEscan
T8 sequence (P37173 23-567): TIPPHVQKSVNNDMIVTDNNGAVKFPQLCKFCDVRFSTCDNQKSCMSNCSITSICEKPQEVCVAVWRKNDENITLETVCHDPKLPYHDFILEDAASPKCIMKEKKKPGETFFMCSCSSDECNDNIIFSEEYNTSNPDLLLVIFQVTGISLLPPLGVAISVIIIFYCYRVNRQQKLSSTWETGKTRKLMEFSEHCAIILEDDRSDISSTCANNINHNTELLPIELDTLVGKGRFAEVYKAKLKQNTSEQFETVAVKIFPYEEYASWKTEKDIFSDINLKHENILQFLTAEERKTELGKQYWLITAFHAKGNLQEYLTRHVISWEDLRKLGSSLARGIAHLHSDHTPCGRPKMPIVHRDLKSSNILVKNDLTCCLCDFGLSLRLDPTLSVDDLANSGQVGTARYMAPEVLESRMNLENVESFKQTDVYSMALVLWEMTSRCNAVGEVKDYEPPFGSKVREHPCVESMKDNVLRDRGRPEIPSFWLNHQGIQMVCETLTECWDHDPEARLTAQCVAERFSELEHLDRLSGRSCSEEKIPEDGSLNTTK

SgK110 = biological target: T9, SgK110 (Homo sapiens, UniProt P0C264)
T9 construct: purchased Eurofins DiscoverX KINOMEscan
T9 sequence (P0C264 1-359): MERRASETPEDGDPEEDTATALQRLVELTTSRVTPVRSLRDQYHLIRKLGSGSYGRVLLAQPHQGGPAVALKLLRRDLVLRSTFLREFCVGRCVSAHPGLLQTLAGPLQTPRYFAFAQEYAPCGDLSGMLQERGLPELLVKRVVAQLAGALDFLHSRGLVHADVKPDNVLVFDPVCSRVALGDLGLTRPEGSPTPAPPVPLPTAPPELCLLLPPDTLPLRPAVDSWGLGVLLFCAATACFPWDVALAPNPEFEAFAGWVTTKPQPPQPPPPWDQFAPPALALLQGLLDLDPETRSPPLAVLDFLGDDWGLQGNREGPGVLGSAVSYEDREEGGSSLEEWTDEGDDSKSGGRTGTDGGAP

MYLK2 = biological target: T10, MYLK2 (Homo sapiens, UniProt Q9H1R3)
T10 construct: purchased Eurofins DiscoverX KINOMEscan
T10 sequence (Q9H1R3 whole entry): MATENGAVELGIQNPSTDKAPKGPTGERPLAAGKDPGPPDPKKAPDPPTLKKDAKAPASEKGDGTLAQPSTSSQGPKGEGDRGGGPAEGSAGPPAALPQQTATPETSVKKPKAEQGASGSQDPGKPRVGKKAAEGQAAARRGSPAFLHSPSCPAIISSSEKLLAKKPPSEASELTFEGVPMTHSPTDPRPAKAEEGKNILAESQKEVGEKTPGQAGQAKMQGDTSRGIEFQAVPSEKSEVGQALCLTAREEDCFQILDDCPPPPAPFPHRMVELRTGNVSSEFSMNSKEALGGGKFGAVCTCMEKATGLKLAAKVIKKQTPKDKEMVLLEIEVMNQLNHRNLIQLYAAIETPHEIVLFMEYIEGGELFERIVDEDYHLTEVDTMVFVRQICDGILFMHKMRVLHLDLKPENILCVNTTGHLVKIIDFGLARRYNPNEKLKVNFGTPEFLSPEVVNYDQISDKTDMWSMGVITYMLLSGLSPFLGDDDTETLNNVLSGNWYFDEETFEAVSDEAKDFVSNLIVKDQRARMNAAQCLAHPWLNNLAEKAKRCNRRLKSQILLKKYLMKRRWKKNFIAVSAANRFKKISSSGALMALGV

MLK1 = biological target: T11, MLK1 (Homo sapiens, UniProt P80192)
T11 construct: purchased Eurofins DiscoverX KINOMEscan

SGK = biological target: T12, SGK (Homo sapiens, UniProt O00141)
T12 construct: purchased Eurofins DiscoverX KINOMEscan
T12 sequence (O00141 1-431): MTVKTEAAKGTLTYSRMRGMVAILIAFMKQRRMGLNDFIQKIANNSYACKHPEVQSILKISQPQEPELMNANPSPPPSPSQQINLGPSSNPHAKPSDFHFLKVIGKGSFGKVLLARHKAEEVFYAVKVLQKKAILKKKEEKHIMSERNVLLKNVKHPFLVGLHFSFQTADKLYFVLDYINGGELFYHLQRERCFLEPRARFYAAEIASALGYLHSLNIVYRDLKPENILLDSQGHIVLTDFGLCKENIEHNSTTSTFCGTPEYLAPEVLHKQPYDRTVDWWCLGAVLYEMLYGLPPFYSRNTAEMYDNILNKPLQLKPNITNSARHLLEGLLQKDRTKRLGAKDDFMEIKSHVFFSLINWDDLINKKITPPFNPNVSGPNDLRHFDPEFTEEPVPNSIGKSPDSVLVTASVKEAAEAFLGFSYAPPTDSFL

KIT = biological target: T13, KIT (Homo sapiens, UniProt P10721)
T13 construct: purchased Eurofins DiscoverX KINOMEscan

TNK2 = biological target: T14, TNK2 (Homo sapiens, UniProt Q07912)
T14 construct: purchased Eurofins DiscoverX KINOMEscan

Clc1cc(NCC2CC2)c2ncc(-c3ccc4[nH]ncc4c3)n2n1 [compound 2, 6-Chloro-N-(cyclopropylmethyl)-3-(1H-indazol-5-yl)imidazo[1,2-b]pyridazin-8-amine]
remaining binding at 1 µM (LRRK2(G2019S)): 91% | remaining binding at 1 µM (IKK-alpha): 76% | remaining binding at 1 µM (IKK-beta): 83% | remaining binding at 1 µM (MAST1): 91% | remaining binding at 1 µM (TLK2): 98% | remaining binding at 1 µM (FGR): 75% | remaining binding at 1 µM (PRKCD): 93% | remaining binding at 1 µM (TGFBR2): 100% | remaining binding at 1 µM (SgK110): 100% | remaining binding at 1 µM (MYLK2): 82% | remaining binding at 1 µM (MLK1): 85% | remaining binding at 1 µM (SGK): 91% | remaining binding at 1 µM (KIT): 1.6% | remaining binding at 1 µM (TNK2): 86%

O=C(CN1CCOCC1)N[C@H]1CC[C@H](Nc2cc(Cl)nn3c(-c4ccc5[nH]ncc5c4)cnc23)CC1 [compound 26]
remaining binding at 1 µM (LRRK2(G2019S)): 76% | remaining binding at 1 µM (IKK-alpha): 100% | remaining binding at 1 µM (IKK-beta): 94% | remaining binding at 1 µM (MAST1): 73% | remaining binding at 1 µM (TLK2): 95% | remaining binding at 1 µM (FGR): 93% | remaining binding at 1 µM (PRKCD): 90% | remaining binding at 1 µM (TGFBR2): 100% | remaining binding at 1 µM (SgK110): 100% | remaining binding at 1 µM (MYLK2): 52% | remaining binding at 1 µM (MLK1): 100% | remaining binding at 1 µM (SGK): 94% | remaining binding at 1 µM (KIT): 0% | remaining binding at 1 µM (TNK2): 93%

CN1CCC(CNc2cc(Cl)nn3c(-c4cc5nc(Nc6ccccc6)[nH]c5cc4F)cnc23)CC1 [compound 31, 6-Chloro-3-(6-fluoro-2-(phenylamino)-1H-benzo[d]imidazol-5-yl)-N-((1-methylpiperidin-4-yl)methyl)imidazo[1,2-b]pyridazin-8-amine]
remaining binding at 1 µM (LRRK2(G2019S)): 88% | remaining binding at 1 µM (IKK-alpha): 90% | remaining binding at 1 µM (IKK-beta): 90% | remaining binding at 1 µM (MAST1): 63% | remaining binding at 1 µM (TLK2): 89% | remaining binding at 1 µM (FGR): 100% | remaining binding at 1 µM (PRKCD): 62% | remaining binding at 1 µM (TGFBR2): 100% | remaining binding at 1 µM (SgK110): 100% | remaining binding at 1 µM (MYLK2): 89% | remaining binding at 1 µM (MLK1): 93% | remaining binding at 1 µM (SGK): 76% | remaining binding at 1 µM (KIT): 68% | remaining binding at 1 µM (TNK2): 100%
